Columns and labels:
[1] = tested on: VCAM-1; assay: Cell surface ELISA for VCAM-1 in human aortic smooth muscle cells (HASMC), interleukin-4 induced; format: cell-based; conditions: 50 μm; for VCAM-1 (Avg.) % inh.: average of HSMC-1 to HSMC-3; for HSMC-1 % inh. of VCAM-1: experiment HSMC-1, interleukin-4, about 20 hr; for HSMC-2 % inh. of VCAM-1: experiment HSMC-2, interleukin-4, about 20 hr; for HSMC-3 % inh. of VCAM-1: experiment HSMC-3, interleukin-4, about 20 hr
Procedure: (§1) Cell Surface ELISA for VCAM-1/ICAM-1
(§2) Proliferating human umbilical vein endothelial cells (HUVEC) or human aortic smooth muscle cells (HASMC) from Clonetics (San Diego, Calif.) were plated onto 96-well plates in 100 μL medium per well at 20,000 cells per cm^2. The cultures were maintained in growth medium (EGM or SMGM2, Clonetics, San Diego, Calif.) for two days prior to addition of cytokines or drugs. Cytokines plus or minus compounds were added for 20 to 24 hours prior to analysis for adhesion molecule levels. Tumor necrosis factor (Genzyme, Cambridge, Mass.) was added to cultures at 500-1000 units/mL. Interleukin-4 (GIBCO-BRL, Gaithersburg, Md.) was added to cultures at 100-200 pg/mL. (Additions were made by transferring 100 [μL of cytokines plus compounds serially diluted on a separate 96-well plate into the plates containing cells. The medium on the cultures was not exchanged prior to addition of effectors). The culture medium was removed, and the monolayers were washed twice with Hanks buffered saline solution (HBSS) at room temperature. The primary antibody (anti-human VCAM-1 from Upstate Biotechnology, Inc., Lake Placid, N.Y. or anti-human ICAM-1 from Immunotech, Inc., Westbrook, Me.) was added to each well (1 μg/mL in HBSS plus 5% newborn calf serum, GIBCO-BRL, Gaithersburg, Md.) and incubated at 37° C. for 1 hr. The wells were washed twice with HBSS, then 100 μL of a 1/1000 dilution of goat anti-mouse IgG conjugated to horse radish peroxidase (BioRad, Hercules, Calif.) in HBSS plus 5% newborn calf serum was added to each well and incubated for 1 hr at 37° C. The wells were washed three times with HBSS, then 100 μL of TMB substrate (BioRad, Hercules, Calif.) was added to each well. The reaction was stopped after blue color developed by addition of 50 μL of 1N H2 SO4. Absorbance is measured at 450 nm with a plate reader. IC50 values were determined from curves of absorbance values obtained from serial dilutions of compounds (dissolved in dimethyl sulfoxide).
(§3) The IC50 value is defined as the drug concentration that inhibits the cytokine-induced adhesion molecule expression by 50%. Maximal values for adhesion molecule expression in cytokine-induced cultures was […] the basal level of adhesion molecule expression (minus cytokines) in the cultures to determine the level of induction. […] Each drug concentration was tested in quadruplicate wells. Single point tests of compounds at 50 μM were assayed as described for IC50 determinations, except that the data represent the level of inhibition without correction for basal expression. (Basal adhesion molecule expression was 10-20% of the total induced expression). Table 1 summarizes the ability of various compounds of this invention to inhibit VCAM-1 using human aortic smooth muscle cells (HASMC). In these experiments, the cells were coincubated with interleukin-4 and the compounds listed about 20 hr before assaying cell surface VCAM-1 levels. Each column represents a separate experiment.

[2] = tested on: VCAM-1; assay: Cell surface ELISA for VCAM-1 in human umbilical vein endothelial cells (HUVEC), TNF-alpha induced; format: cell-based; conditions: 50 μM, average of three runs
Procedure: as §1, §2, §3
In these experiments, the cells were coincubated with tumor necrosis factor-alpha along with the indicated compounds about 20 to 24 hr before assaying cell surface adhesion molecule expression.

[3] = tested on: oxidation of lipids; assay: Conjugated diene determination, rat serum; format: in vivo, male Sprague-Dawley rats; conditions: pooled rat serum, 4 days, mean of 2 determinations
Text: A typical experiment consisted of 4-6 groups of rats (N=5 per group) with 1 group being a control which received no MDL compound and the other groups being treated with 0.3% MDL compound. Some of the compounds were either repeated at 0.3% or evaluated again at the lower dose of 0.1%. Male Sprague-Dawley rats, 50-100 g, (Harlan Laboratories, Indianapolis, Ind.) were housed in groups of 5, fed ad libitum water and Purina Rodent chow (#5002) with or without MDL compound as a dietary admixture for 4 days. Dietary admixtures (0.3%) were made by mixing 1.2 grams of an MDL compound with 400 grams of Purina rodent chow (#5002). The MDL compound was mixed with approximately 50 grams of food using a mortar and pestle. This was added to the remainder of the food and mixed for 3 hours on a rotary mixer. In the morning of day 5, non-fasted rats were anesthetized with carbon dioxide, and blood was collected by cardiac puncture. Rats were sacrificed by cervical dislocation. Body weights and liver weights were recorded in grams. Food consumption was recorded as grams.cndot.day^-1.cndot.rat^-1. Deaths were recorded as mortality. Aliquots of fresh serum were used for clinical chemistries, thiobarbituric acid reactive substances (TBARS) and conjugated diene measurements. Aliquots of serum (~0.5mL) and whole livers were frozen at -20° C. for compound and metabolite concentration determination at a later time.
Conjugated diene lag phase is another indicator of the oxidation of lipids. Lipids exposed to Cu^++ form conjugated dienes that absorb ultraviolet light in the range of 230 to 235 nm. The lag phase of diene formation gives an indication of the amount of oxidation of the lipids. A lag phase longer than control samples indicate inhibition of the oxidation. Conjugated diene lay phase was determined using a Varian DMS200 spectrophotometer (fitted with a constant temperature, 5 cuvette sample changer) at 30° C. Twenty (20) μL of pooled serum were added to cuvettes containing 3.0 mL phosphate buffered saline, pH 7.5, and mixed. The absorbances of all cuvettes were measured, and the instrument baseline was set to zero using the lowest absorbing sample. Next, 100 μL of 1 mmol CuSO4 were added and immediately mixed. The absorbance of each cuvette was recorded at 2 min intervals for a period of 840 min. The data were captured and transferred to a Microsoft EXCEL® spreadsheet where the curves were smoothed and differentials obtained. Lag times were determined mathematically as minutes. Serum samples were pooled (N=5); data presented are the mean values of 2 determinations. Serum samples from treated rats were compared to serum samples from control rats that received no MDL compound.

`CC(C)(C)c1cc(OC[Si](C)(C)c2ccccc2)cc(C(C)(C)C)c1OC(=O)CCC(=O)O` [MDL 103,076, 2,6-Di-t-butyl-4-[(dimethylphenylsilyl)methyloxy]phenol succinic acid ester] was tested, and the “VCAM-1 (Avg.) % inh.” value [1] was 43.9%, the “HSMC-1 % inh. of VCAM-1” value [1] was 30.6% and the “HSMC-2 % inh. of VCAM-1” value [1] was 55.0%. The “HSMC-3 % inh. of VCAM-1” value [1] was 46.0% and the VCAM-1 % inh. [2] was 7.3%.

`CC(C)(C)c1cc(SC[Si](C)(C)c2ccccc2)cc(C(C)(C)C)c1OC(=O)CCC(=O)O` [MDL 103,141, 2,6-Di-t-butyl-4-[(dimethylphenylsilyl)methylthio]phenol sucinic acid ester] was tested, and the “VCAM-1 (Avg.) % inh.” value [1] was 31.2%, the “HSMC-1 % inh. of VCAM-1” value [1] was 13.7% and the “HSMC-2 % inh. of VCAM-1” value [1] was 47.0%. The “HSMC-3 % inh. of VCAM-1” value [1] was 33.0% and the VCAM-1 % inh. [2] was 1.3%.

With `CC(=O)Oc1c(C(C)(C)C)cc(OC[Si](C)(C)c2ccccc2)cc1C(C)(C)C` [MDL 103,377, 2,6-Di-t-butyl-4-[(dimethylphenylsilyl)methyloxy]phenol acetic acid ester] the “VCAM-1 (Avg.) % inh.” value [1] was 45.5%, the “HSMC-2 % inh. of VCAM-1” value [1] was 45.0% and the “HSMC-3 % inh. of VCAM-1” value [1] was 46.0%. The VCAM-1 % inh. [2] was 18.3%.

In the case of `CC(C)(C)c1cc(OC[Si](C)(C)c2ccccc2)ccc1O` [MDL 103,491, 2-t-Butyl-4-[(dimethylphenylsilyl)methyloxy]phenol], the “CONJ. DIENE (conjugated diene lag phase)” value ([3]; diet 0.1%) is reported as 168 min, the “VCAM-1 (Avg.) % inh.” value [1] is reported as 53.0% and the “HSMC-2 % inh. of VCAM-1” value [1] is reported as 57.0%. For the same compound, the “HSMC-3 % inh. of VCAM-1” value [1] was 49.0% and the VCAM-1 % inh. [2] was 12.0%.

`CN(C)c1ccc([Si](C)(C)COc2cc(C(C)(C)C)c(O)c(C(C)(C)C)c2)cc1` [MDL 104,556, 2,6-Di-t-butyl-4-[(4-N,N-dimethylaminophenyldimethylsilyl)methyloxy]phenol] was tested, and the “CONJ. DIENE (conjugated diene lag phase)” value ([3]; diet 0.1%) was 200 min, the “VCAM-1 (Avg.) % inh.” value [1] was 56.7% and the “HSMC-1 % inh. of VCAM-1” value [1] was 54.1%. The “HSMC-2 % inh. of VCAM-1” value [1] was 58.0%, the “HSMC-3 % inh. of VCAM-1” value [1] was 58.0% and the VCAM-1 % inh. [2] was 33.3%.

For `CC(C)(C)c1cc(OC[Si](C)(c2ccccc2)c2ccccc2)cc(C(C)(C)C)c1O` [MDL 104,599, 2,6-Di-t-butyl-4-[(diphenylmethylsilyl)methloxy]phenol], the “VCAM-1 (Avg.) % inh.” value [1] was 45.7%, the “HSMC-1 % inh. of VCAM-1” value [1] was 50.1% and the “HSMC-2 % inh. of VCAM-1” value [1] was 38.0%. The “HSMC-3 % inh. of VCAM-1” value [1] was 49.0% and the VCAM-1 % inh. [2] was 12.3%.

In the case of `CC(C)(C)c1cc(OC[Si](C)(C)c2ccccc2)c(C(C)(C)C)cc1O` [MDL 104,962, 2,5-Di-t-butyl-4-[(dimethylphenylsilyl)methyloxy]phenol], the “CONJ. DIENE (conjugated diene lag phase)” value ([3]; diet 0.3%) is reported as 320 min.

With `Cc1cc(OC[Si](C)(C)c2ccccc2)c(C)c(C)c1O` [MDL 105,314, 2,3,6-Trimethyl-4-[(dimethylphenylsdilyl)methloxy]phenol] the “VCAM-1 (Avg.) % inh.” value [1] was 28.2%, the “HSMC-1 % inh. of VCAM-1” value [1] was 8.7% and the “HSMC-2 % inh. of VCAM-1” value [1] was 38.0%. For the same compound, the “HSMC-3 % inh. of VCAM-1” value [1] was 38.0% and the VCAM-1 % inh. [2] was 10.7%.

In the case of `CC(=O)Oc1ccc(OC[Si](C)(C)c2ccccc2)cc1C(C)(C)C` [MDL 105,443, 2-t-Butyl-4-[(dimethylphenylsilyl)methyloxy]phenol acetic acid ester], the “CONJ. DIENE (conjugated diene lag phase)” value ([3]; diet 0.1%) is reported as 151 min, the “VCAM-1 (Avg.) % inh.” value [1] is reported as 25.8% and the “HSMC-1 % inh. of VCAM-1” value [1] is reported as 11.4%. The “HSMC-2 % inh. of VCAM-1” value [1] was 44.0%, the “HSMC-3 % inh. of VCAM-1” value [1] was 22.0% and the VCAM-1 % inh. [2] was 3.0%.

With `CC(C)(C)c1cc(OC[Si](C)(C)c2ccc(C(F)(F)F)cc2)cc(C(C)(C)C)c1O` [MDL 105,975, 2,6-Di-t-butyl-4-[(dimethyl-4-trifluoromethylphenylsilyl)methyloxy]phenol] the “VCAM-1 (Avg.) % inh.” value [1] was 19.8%, the “HSMC-2 % inh. of VCAM-1” value [1] was 20.0% and the “HSMC-3 % inh. of VCAM-1” value [1] was 51.0%. For the same compound, the VCAM-1 % inh. [2] was 6.3%.

For `COc1ccc([Si](C)(C)COc2ccc(O)c(C(C)(C)C)c2)cc1` [MDL 106,834, 2-t-Butyl-4-[(dimethyl-p-methoxylphenylsilyl)methyloxy]phenol], the “CONJ. DIENE (conjugated diene lag phase)” value ([3]; diet 0.3%) was 492 min.

— patent US5608095A, “Alkyl-4-silyl-phenols and esters thereof as antiatherosclerotic agents” (Hoechst Marion Roussel, Inc., priority 1996, dated 1997)
